Test system: seed fruits of Cucumis sativus L.
Test: Soaking and dipping of female flowers of seed fruits of Cucumis sativus L. in the pollination stage
Type: in vivo
Conditions: 50 μM solution with Tween 80 10000:1, greenhouse
Protocol: A processing method for increasing seed production efficiency of seed fruits of Cucumis sativus L., comprising the following steps: • (1) Preparing a plant growth regulator according to a formula proportion; • Preparing a 5-azacytidine solution with a concentration of 50 μM, adding an emulsifier Tween 80 at the same time, and mixing the 5-azacytidine solution and the emulsifier Tween 80 at a proportion of 10000:1 to obtain the plant growth regulator; • (2) Selecting seed fruits of Cucumis sativus L. growing naturally in a greenhouse and reaching a pollination stage, and dipping female flowers thereof with the plant growth regulator prepared in step (1) before pollination; • (3) Picking male flowers for pollination after the female flowers are completely dry; • (4) Dipping the pollinated female flowers again; • (5) Conducting field routine cultivation management.
In step (2), the preserved solution of the prepared plant growth regulator is poured into any container, and the female flowers of the seed fruits of Cucumis sativus L. reaching a pollination stage are completely immersed in the plant growth regulator in the container for at least 5 seconds.
In step (2), in the greenhouse, the temperature is stabilized at 20° C.-35° C., the humidity is 70%-90%, the pH value of the cultivation soil is 6.5, a selected species of Cucumis sativus L. is a species of North China Cucumis sativus L. used for seed production, a row spacing for seed fruit cultivation is fixed at 75 cm, a planting distance is 25 cm, and the number of plants planted in each row is 80.
Step (3) is specifically as follows: picking male flowers blooming on the same plant, removing all petals, poking stamens of the male flowers into the female flowers after the female flowers soaked and dipped by the plant growth regulator are completely dry, and repeating the process for multiple times to increase pollination success rate.
Step (4) is specifically as follows: repeating the soaking and dipping treatment described in step (2) for successfully pollinated female flowers of Cucumis sativus L. on the third day after pollination.
In a third aspect of the present invention, a processing method for increasing seed production efficiency of seed fruits of Cucumis sativus L. is provided, which mainly comprises the following steps: • (1) Preparing a reagent. Specifically: preparing a 5-azacytidine solution with a concentration of 50 μM, adding an emulsifier Tween 80 at the same time according to a proportion of 10000:1, and preserving the reagent in a refrigerator at 4° C. • (2) Selecting seed fruits of Cucumis sativus L. growing naturally in a greenhouse and reaching a pollination stage, and dipping female flowers thereof with the reagent prepared in step (1) before pollination. […]

[1] = female flowers dipped before pollination and on the third day after

Compound: Nc1ncn([C@@H]2O[C@H](CO)[C@@H](O)[C@H]2O)c(=O)n1 [5-azacytidine]
- fruit length of the seed fruits [1]: significantly reduced
- number of seeds of the seed fruits [1]: without affecting
- seed production efficiency of the seed fruits [1]: increased
- weight of Cucumis sativus L. (fruit weight) (female flowers treated in the pollination stage): significantly reduce
